Results published in US20110105349A1, “USE OF A MONOPHOSPHATE ESTER OF A PHTHALEIN COMPOUND AS A SUBSTRATE FOR TARTRATE-RESISTANT ACID PHOSPHATASE B5 (TRAP 5B)” (MUNODIAGNOSTIC SYSTEMS LIMITED, priority 2008, published 2011).
“Also recorded” adds a separate entry of the source. Blank lines part the entries; values can stand above or below the compound they belong to.

What was measured:
TRAP5b [1] = conditions: cited from earlier work
TRAP5b [2] = test: Activity with phthalein monophosphate esters at 0.47 mg/mL, pH 7.4 (Example 8); format: biochemical, human; parameters: 5b Activity: unit not given here; conditions: 0.47 mg/mL in 100 mM MES pH7.4
Experimental: (§1) To test for activity towards PTMP, 100 μL of a solution containing 6 mg/mL PTMP dissolved in 125 mM MOPS buffer, pH 7.0 was added per well and incubated for 0-40 min at 37° C. The reactions were stopped at the times indicated by the addition of 50 μL per well of 1M glycine/NaOH, pH11 and the absorbance at […] was measured. To test for activity towards TTMP, 100 μL of a solution containing 5 mg/mL TTMP dissolved in 80 mM MOPS buffer, 10% ethanol, pH 7.0 was added per well and incubated for 0-40 min at 37° C. The reactions were stopped at the times indicated by the addition of 50 μL per well of 0.25 M NaOH and the absorbance at […] was measured.
(§2) Where phthalein monophosphate esters were not available commercially, the monophosphate esters were prepared by the method of Bulbenko & Woodbridge (U.S. Pat. No. 4,045,290) by reaction of the appropriate phthalein compound (from Sigma-Aldrich) with phosphorus oxychloride (CAS 10025-87-3), followed by hydrolysis and purification. The monophosphate esters were further purified before use by HPLC chromatography to remove un-reacted phthalein dye. HPLC column 10 mm×150 mm ACE 5 C18 (Advance Chromatography Technologies, UK), load solvent composition, 30% methanol and 70% water containing 0.1% trifluoroacetic acid (TFA); product was eluted by a gradient from 30% methanol 0.1% TFA to 100% methanol 0.1% TFA at 3 mL/minute over 45 minutes.
(§3) Phthalein monophosphate esters prepared in Example 7 were diluted to 0.47 mg/mL in 100 mM MES pH7.4 buffer and applied to an assay as in Example 1.

TRAP5a [3] = target: T1, TRAP5a (Homo sapiens, UniProt P13686); test: as above; format: biochemical; parameters: unit not given beside the values; conditions: 0.47 mg/mL in 100 mM MES pH7.4
T1 construct: Serum-derived TRAP5a and TRAP5b were separated by ion exchange chromatography; from tissue; host or cells: human serum
T1 sequence (P13686 22-325): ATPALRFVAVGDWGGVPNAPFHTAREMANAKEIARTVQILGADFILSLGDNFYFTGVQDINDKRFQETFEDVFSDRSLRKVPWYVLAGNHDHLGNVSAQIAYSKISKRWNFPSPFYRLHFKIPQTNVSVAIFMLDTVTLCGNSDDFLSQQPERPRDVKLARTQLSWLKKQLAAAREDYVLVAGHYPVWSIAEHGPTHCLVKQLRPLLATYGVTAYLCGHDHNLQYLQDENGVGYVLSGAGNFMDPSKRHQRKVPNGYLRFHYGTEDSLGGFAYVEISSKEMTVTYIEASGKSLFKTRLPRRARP
Experimental: as §1, §2, §3

TRAP5b [4] = test: TRAP5 capture immunoassay, specific activity with each substrate (Example 3); format: biochemical, human
Experimental: (§4) Microtitre plates (Nunc Maxisorp) were coated with mouse anti-TRAP5 (clone O1A), from a solution of a 3.0 mg/L purified Mab IgG in 10 mM phosphate buffered saline (PBS), 100 μL per well and incubated overnight at room temperature. The coated plates were washed three times with 10 mM phosphate buffered saline, 0.05% Tween 20. A stabilising reagent of 5% lactose, 0.5% BSA was added, 250 μL per well, incubated for at least 10 minutes, then the liquid aspirated. The coated plates were dried overnight at 35° C. then stored at 2-8° C. protected from moisture.
(§5) Serum-derived TRAP5a and TRAP5b were separated by ion exchange chromatography using a modification of the procedure described by Lam et al, Clin. Chem. 24(7):1105-1108, 1978. 100-500 mL human serum was adjusted to around pH 5.0 with 100% acetic acid, and optionally diluted with an equal volume of 10 mM sodium phosphate buffer, pH 4.9. After clarification by centrifugation and filtering, the acidified serum was applied to a 1 cm×100-150 cm column of CM-Sepharose (Sigma, part No CCF 100) and the column was developed with a linear NaCl gradient, from 150-800 mM. Fractions containing TRAP5a and TRAP5b activity were identified using a non-capture assay essentially as described by Lam et al Clin. Chem. 24(7):1105-1108, 1978. In some instances the fractions were further assayed for TRAP5 by the immunoassays described below. Fractions containing peak levels of TRAP5a or TRAP5b were separately pooled for further analysis.
The TRAP5 protein concentration in the TRAP5a and TRAP5b preparations was determined by a sandwich immunoassay. 100-200 μL sample per well was applied to O1A-coated microtitre plates and incubated overnight at 4° C. The plate was washed three times with 10 mM phosphate buffered saline, 0.05% Tween 20, and 100-200 μL of a solution containing the rabbit anti-TRAP5 antibody at a dilution of 1:4000 was added per well. After 60 min incubation at ambient temperature the plate was washed as above and 100-200 μL of a solution containing anti-rabbit IgG-Horseradish peroxidase conjugate at a dilution of 1:5000 was added and incubated for 30 min at ambient temperature. After further washing as described above […] of TMB (BioFx Inc, part TMBW-0100-01) was added and incubated for 30 min at ambient temperature. The reactions were stopped by the addition of 100 μL 0.5M HCl and the absorbance at 450 nm was measured. TRAP5 protein concentrations were calculated by reference to a calibration curve prepared from baculovirus-derived recombinant human TRAP5.
as §1
TRAP5a and TRAP5b preparations were prepared and quantified with respect to TRAP5 mass as described in Example 3. A set of TRAP5 calibrators was prepared by incubating 225 μg baculovirus-derived recombinant human TRAP with 12 U chymotrypsin for 6 h at ambient temperature, preparing a series of dilutions from this material and assigning TRAP5 concentrations (in U/L) to these dilutions using the commercial TRAP5b immunoassay based on WO1999/050662. The TRAP5a and TRAP5b preparations were assayed by a commercial TRAP5b immunoassay based on WO1999/050662 which uses pNPP as substrate at pH 6.1 with the modification that the chymotrypsin-treated calibrators described above were substituted for those provided by the manufacturer. […]

TRAP5b [5] = test: Time course of substrate hydrolysis on O1A-coated plates (Example 1, FIG. 1); format: biochemical, human
Experimental: as §4, §5
(§6) The TRAP5 protein concentration in the TRAP5a and TRAP5b preparations was determined by a sandwich immunoassay. 100-200 μL sample per well was applied to O1A-coated microtitre plates and incubated overnight at 4° C. The plate was washed three times with 10 mM phosphate buffered saline, 0.05% Tween 20, and 100-200 μL of a solution containing the rabbit anti-TRAP5 antibody at a dilution of 1:4000 was added per well. […] The reactions were stopped by the addition of 100 μL 0.5M HCl and the absorbance at 450 nm was measured. TRAP5 protein concentrations were calculated by reference to a calibration curve prepared from baculovirus-derived recombinant human TRAP5.
as §1, with “To test for activity towards TTMP, 100 μL of a solution containing 5 mg/mL TTMP dissolved in 80 mM MOPS buffer, 10% ethanol, pH 7.0 was added per well and incubated for 0-40 min at 37° C.” left out

TRAP5a [6] = target: T1, TRAP5a; test: Assay of CM-Sepharose fractions of normal human serum with pNPP- and PTMP-based assays (Example 4, FIG. 3); format: biochemical; conditions: peak TRAP5a fraction 53
From the text: TRAP5a and TRAP5b from normal human serum were separated on a CM-Sepharose column and the fractions assessed for TRAP5b using the pNPP and PTMP-based assays described in Example 3.

TRAP5a [7] = target: T1, TRAP5a; test: pH vs activity profile (Example 2, FIG. 2); format: biochemical; conditions: substrate 6 mg/mL in MES or MOPS buffers
Experimental: (§7) Since TRAP5 is an acid phosphatase that normally is only active under acidic conditions, the relationship between TRAP5a and TRAP5b enzyme activity and substrate pH using PTMP as substrate over a range of pH values was investigated. The TRAP5 assays were performed essentially as described for Example 1, except that the PTMP substrate was dissolved at 6 mg/mL in a series of 100 mM MES or 100 mM MOPS buffers to give the pH values indicated.

TRAP5a [8] = target: T1, TRAP5a; test: TRAP5 capture immunoassay, specific activity with each substrate (Example 3); format: biochemical
Experimental: as §4, §5, §6
as §1, with “To test for activity towards TTMP, 100 μL of a solution containing 5 mg/mL TTMP dissolved in 80 mM MOPS buffer, 10% ethanol, pH 7.0 was added per well and incubated for 0-40 min at 37° C.” left out
TRAP5a and TRAP5b preparations were prepared and quantified with respect to TRAP5 mass as described in Example 3. […]

TRAP5a [9] = target: T1, TRAP5a; test: Time course of substrate hydrolysis on O1A-coated plates (Example 1, FIG. 1); format: biochemical; conditions: serum-derived TRAP5a; neutral pH (7.0) in Example 1
Experimental: as §4, with “moisture. […]” for “moisture.”
The TRAP5 protein concentration in the TRAP5a and TRAP5b preparations was determined by a sandwich immunoassay. […] The reactions were stopped by the addition of 100 μL 0.5M HCl and the absorbance at 450 nm was measured. TRAP5 protein concentrations were calculated by reference to a calibration curve prepared from baculovirus-derived recombinant human TRAP5.
as §1, with “To test for activity towards TTMP, 100 μL of a solution containing 5 mg/mL TTMP dissolved in 80 mM MOPS buffer, 10% ethanol, pH 7.0 was added per well and incubated for 0-40 min at 37° C.” left out

TRAP5b [10] = test: pH vs activity profile (Example 2, FIG. 2); format: biochemical, human; conditions: substrate 6 mg/mL in MES or MOPS buffers
Experimental: as §7

SMILES: O=[N+]([O-])c1ccc(OP(=O)(O)O)c(Cl)c1 [2-chloro-4-nitrophenylphosphate]
relative activity for TRAP 5b over TRAP 5a compared with WO1999/050662 (TRAP5b [1]; EP 1598670): 0.8 ×
pH optimum of TRAP5b (TRAP5b [1]; WO1999/050662 (pNPP), EP1598670 (2-chloro-4-nitrophenylphosphate)): 6.4 pH

SMILES: O=P(O)(O)Oc1ccc(C2(c3ccc(O)cc3)OS(=O)(=O)c3ccccc32)cc1 (stereo not shown) [Phenol Red, Phenol Red monophosphate]
5b Activity (TRAP5b [2]): 0.3558
Ratio of 5b:5a activity (TRAP5b [2]): 53.1
5a Activity (TRAP5a [3]): 0.0067

SMILES: O=C1OC(c2ccc(O)cc2)(c2ccc(OP(=O)(O)O)cc2)c2ccccc21 (stereo not shown) [PTMP, Phenolphthalein monophosphate]
Ratio 5B:5A of specific activity (TRAP5b [4]; pNPP at pH 6.1, PTMP and TTMP at pH 7.0): 47.5
specificity for TRAP5b over TRAP5a compared with the commercial pNPP based assay (TRAP5b [4]; relative to pNPP-based assay): ~4.75 fold
TRAP5 Specific Activity 5B (TRAP5b [4]; serum-derived TRAP5b, pNPP at pH 6.1, PTMP and TTMP at pH 7.0): 1.68 U/μg
specific activity of TRAP5b relative to that of TRAP5a (TRAP5b [5]; pH 7.0, from FIG. 1): approximately 50 times
hydrolysis of substrate by TRAP5b (TRAP5b [5]; serum-derived TRAP5b, neutral pH (7.0) in Example 1): readily hydrolyze; also recorded: hydrolised
TRAP5a detected, as share of the TRAP5a detected by the pNPP-based assay (TRAP5a [6]): 16%
pH of maximal activity (pH optimum) of TRAP5a (TRAP5a [7]): ~6.0 pH
TRAP5a detected, as share of the TRAP5a detected by the pNPP-based assay (TRAP5a [8]; from specific activities, PTMP pH 7.0 vs pNPP pH 6.1): 20%
TRAP5 Specific Activity 5A (TRAP5a [8]; serum-derived TRAP5a, pNPP at pH 6.1, PTMP and TTMP at pH 7.0): 0.035 U/μg
hydrolysis of substrate by TRAP5a (TRAP5a [9]): readily hydrolyze; also recorded: hydrolised
5b Activity (TRAP5b [2]): 0.3664
Ratio of 5b:5a activity (TRAP5b [2]): 33.3
5a Activity (TRAP5a [3]): 0.0110
pH of maximal activity (pH optimum) of TRAP5b (TRAP5b [10]): 7.0 pH

5a Activity (TRAP5a [3]): 0.0036
SMILES: Cc1c(C2(c3cc(Br)c(OP(=O)(O)O)c(Br)c3C)OS(=O)(=O)c3ccccc32)cc(Br)c(O)c1Br (stereo not shown) [Bromocresol Green, Bromocresol Green monophosphate]
5b Activity (TRAP5b [2]): 0.2636
Ratio of 5b:5a activity (TRAP5b [2]): 73.2
